The series can be described thus: safe delivery concentration of PGG as a function of its purity. As to conditions: PGG of the stated purity; toxic impurities gallic acid and methyl gallate. The source says: The concentrations of PGG which may be safely delivered to a patient may be generally proportional to the purity of the PGG. For example, gallic acid, depicted in FIG. 1B, and methyl gallate, depicted in FIG. 1C, are common cytotoxic impurities which may be removed from a source batch of PGG during the purification process. Eliminating the presence of or reducing the concentration of toxic impurities from the delivered PGG may allow higher concentrations of the PGG to be delivered due to the mitigation of the toxic side effects of impurities commonly found in isolated PGG. For instance, studies have shown that substantially 100% pure PGG may be safely delivered at concentrations up to approximately 0.330% (w/v), 95% pure PGG may be safely delivered at concentrations up to approximately 0.125% (w/v), and 85% pure PGG may be safely delivered at concentrations up to approximately 0.06% (w/v). Delivery of PGG in higher concentrations may enhance the amount of uptake of PGG by the target tissue which may increase the efficacy of the PGG treatment. Delivery of PGG in higher concentrations may increase the rate of uptake of PGG by the tissue allowing the same amount of uptake in shorter delivery times. […]

Some results are limits rather than exact numbers.

In the case of “1,2,3,4,6-pentagalloyl glucose [85% pure PGG]”, the “concentration up to which PGG may be safely delivered” value is given as ≤ 0.06 % (w/v).
For “1,2,3,4,6-pentagalloyl glucose [substantially 100% pure PGG]” the value was ≤ 0.330 % (w/v).
